Data as given in patent publication US20210355106A1, “NEW AMINO-PYRIMIDONYL-PIPERIDINYL DERIVATIVES, A PROCESS FOR THEIR PREPARATION AND PHARMACEUTICAL COMPOSITIONS CONTAINING THEM” (LES LABORATOIRES SERVIER, priority 2018, published 2021).

What was measured:
USP7 = target: T1, USP7 (Homo sapiens, UniProt Q93009, C315A); assay: Inhibition of USP7 by Fluorescence Intensity (FLINT) readings, Ubiquitin-Rhodamine-110 substrate; type: biochemical; details: 0.25 nM His-His-USP7 (aa208-560), 60 minutes at 30° C. preincubation; Ki determined from IC50 according to Cer et al.
T1 construct: 0.25 nM His-His-USP7 (aa208-560, |C315A|) was incubated with compound; His-His (N)
Procedure, shortened: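 Kinetic rate of Rhodamine-110 release from ubiquitin substrate (50 nM or 4 μM), read every 3 min for 21 min, after 60 min, 30 °C preincubation of 0.25 nM USP7 catalytic domain C315A with compound. Bicine pH 8.0 buffer, 10% DMSO; 11-point IC50 vs DMSO and no-enzyme controls, converted to Ki.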

[1] = tested on: Z138 mantle cell lymphoma tumour cell lines; assay: In vitro cytotoxicity, MTT assay; type: cell-based; details: Z138 cells, exposed to the test compounds for 96 hours
Procedure, shortened: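 MTT viability read-out: after 96 hours of compound treatment, Z138 mantle cell lymphoma cells received MTT for 4 hours, and formazan production was quantified by absorbance at 540 nm.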

T1 sequence (Q93009 208-560 C315A): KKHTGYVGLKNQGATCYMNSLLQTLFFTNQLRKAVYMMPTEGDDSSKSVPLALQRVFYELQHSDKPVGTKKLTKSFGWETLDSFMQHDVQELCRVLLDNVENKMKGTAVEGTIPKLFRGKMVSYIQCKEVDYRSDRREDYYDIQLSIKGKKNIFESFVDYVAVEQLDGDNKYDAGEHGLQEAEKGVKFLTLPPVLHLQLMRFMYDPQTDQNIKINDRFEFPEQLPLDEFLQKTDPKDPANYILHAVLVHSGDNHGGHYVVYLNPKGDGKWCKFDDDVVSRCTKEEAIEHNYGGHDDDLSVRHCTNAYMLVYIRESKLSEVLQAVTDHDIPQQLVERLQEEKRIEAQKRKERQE

| Molecule | Ki (USP7) [µM] | IC50 ([1]; Homo sapiens, Z-138) [µM] | IC50 [1] [µM] |
| --- | --- | --- | --- |
| Nc1c(Oc2ccc(F)cc2)ncn(CC2(O)CCN(C(=O)[C@@H]3CCN(C(=O)c4cccc(Br)c4)C[C@H]3c3ccccc3)CC2)c1=O [Example 31, 5-amino-3-({1-((3R,4R)-1-(3-bromobenzoyl)-3-phenylpiperidine-4carbonyl]-4-hydroxypiperidin-4-yl)methyl)-6-(4-fluorophenoxy)pyrimidin-4(3H)-one] | 0.00915 | 0.00545 |  |
| Nc1c(Oc2ccc(F)cc2)ncn(CC2(O)CCN(C(=O)[C@@H]3CCN(C(=O)Nc4ccccc4C(F)(F)F)C[C@H]3c3ccccc3)CC2)c1=O [Example 128, (3R,4R)-4-[4-[[5-amino-4-(4-fluorophenoxy)-6-oxo-pyrimidin-1-yl]methyl]-4-hydroxy-piperidine-1-carbonyl]-3-phenyl-N-[2-(trifluoromethyl)phenyl]piperidine-1-carboxamide] | 0.0386 | 0.075 |  |
| Cc1nc(C2CCCN(C)C2)sc1C(=O)N1CC[C@@H](C(=O)N2CCC(O)(Cn3cnc(Oc4ccc(F)cc4)c(N)c3=O)CC2)[C@H](c2ccccc2)C1 (stereo partly drawn) [Example 199, 5-amino-6-(4-fluorophenoxy)-3-[[4-hydroxy-1-[(3R,4R)-1-[4-methyl-2-(1-methyl-3-piperidyl)thiazole-5′-carbonyl]-3-phenyl-piperidine-4-carbonyl]-4-piperidyl]methyl]pyrimidin-4-one] | 0.00923 | 0.0341 |  |
| Cc1ccc(-c2ccc(S(=O)(=O)N3CC[C@@H](C(=O)N4CCC(O)(Cn5cnc(Oc6ccc(F)cc6)c(N)c5=O)CC4)[C@H](c4ccccc4)C3)s2)cn1 [Example 117] | 0.0286 | 0.0276 |  |
| 5-amino-3-[[(3SR,4RS)-3-fluoro-4-hydroxy-1- (3R,4R)-1-[4-methyl-2-(6-methyl-3-pyridyl)thiazole-5-carbonyl]-3-phenyl-piperidine-4carbonyl]-4-piperidyl]methyl]-6-(4-fluorophenoxy)pyrimidin-4-one and 5-amino-3-[[(3RS,4SR)-3-fluoro-4-hydroxy-1-(3R,4R)-1-[4-methyl-2-(6-methyl-3-pyridyl)thiazole-5-carbonyl]-3-phenyl-piperidine-4-carbonyl]-4-piperidyl]methyl]-6-(4-fluorophenoxy)pyrimidin-4-one [Example 197] | 0.014 |  | 0.0097 |
| Cc1nccnc1CN1CC[C@@H](C(=O)N2CC[C@](O)(Cn3cnc(Oc4ccc(F)cc4)c(N)c3=O)C(F)(F)C2)[C@H](c2ccccc2)C1 [Example 211, 5-amino-3-[[(4S)-3,3-difluoro-4-hydroxy-1-[(3R,4R)-1-[(3-methylpyrazin-2-yl)methyl]-3-phenyl-piperidine-4-carbonyl]-4-piperidyl]methyl]-4(4-fluorophenoxy)pyrimidin-4-one] | 0.0277 | 0.0249 |  |
| Nc1c(Oc2ccc(F)cc2)ncn(CC2(O)CCN(C(=O)[C@@H]3CCN(Cc4cnc(Br)s4)C[C@H]3c3ccccc3)CC2)c1=O [Example 50, 5-amino-3-[[1-[(3R,4R)-1-[(2-bromothiazol-5-yl)methyl]-3-phenyl-piperidine-4-carbonyl]-4-hydroxy-4-piperidyl]methyl]-6-(4-fluorophenoxy)pyrimidin-4-one] | 0.00789 | 0.00617 |  |
| COc1cc(Oc2ncn(C[C@@]3(O)CCN(C(=O)[C@@H]4CCN(C(=O)c5sc(-c6ccc(C)nc6)nc5C)C[C@H]4c4ccccc4)CC3(F)F)c(=O)c2N)ccc1Cl [Example 184, 5-amino-6-(4-chloro-3-methoxy-phenoxy)-3-[[(4S)-3,3-difluoro-4-hydroxy-1-[(3R,4R)-1-[4-methyl-2-(6-methyl-3-pyridyl)thiazole-5-carbonyl]-3-phenyl-piperidine-4-carbonyl]-4-piperidyl]methyl]pyrimidin-4-one] | 0.00728 | 0.00396 |  |
| Nc1c(Oc2ccc(F)cc2)ncn(CC2(O)CCN(C(=O)[C@@H]3CCN(C4(c5cccc(Cl)c5)COC4)C[C@H]3c3ccccc3)CC2)c1=O [Example 171] | 0.0428 | 0.0314 |  |
| COc1cc(Oc2ncn(C[C@@]3(O)CCN(C(=O)[C@@H]4CCN(Cc5nccnc5C)C[C@H]4c4ccccc4)CC3(F)F)c(=O)c2N)ccc1F [Example 219, 5-amino-3-[[(4S)-3,3-difluoro-4-hydroxy-1-[(3R,4R)-1-[(3-methylpyrazin-2-yl)methyl]-3-phenyl-piperidine-4-carbonyl]-4-piperidyl]methyl]-6-(4-fluoro-3-methoxy-phenoxy)pyrimidin-4-one] | 0.0303 | 0.0234 |  |
| Nc1c(Oc2ccc(F)cc2)ncn(CC2(O)CCN(C(=O)[C@@H]3CCN(S(=O)(=O)c4cccc(Br)c4)C[C@H]3c3ccccc3)CC2)c1=O [Example 69, 5-amino-3-[[1-[(3R,4R)-1-(3-bromophenyl)sulfonyl-3-phenyl-piperidine-4-carbonyl]-4-hydroxy-4-piperidyl]methyl]-6-(4-fluorophenoxy)pyrimidin-4-one] | 0.0181 | 0.0217 |  |
| Cc1ccc(-c2cccc(S(=O)(=O)N3CC[C@@H](C(=O)N4CCC(O)(Cn5cnc(Oc6ccc(F)cc6)c(N)c5=O)CC4)[C@H](c4ccccc4)C3)c2)cn1 [Example 159, 5-amino-6-(4-fluorophenoxy)-3-[[4-hydroxy-1-[(3R,4R)-1-[3-(6-methyl-3-pyridyl)phenyl]sulfonyl-3-phenyl-piperidine-4-carbonyl]-4-piperidyl]methyl]pyrimidin-4-one] | 0.0222 | 0.00818 |  |
| Cc1cncc(CN2CC[C@@H](C(=O)N3CC[C@](O)(Cn4cnc(Oc5ccc(F)cc5)c(N)c4=O)C(F)(F)C3)[C@H](c3ccccc3)C2)n1 [Example 207, 5-amino-3-[[(4S)-3,3-difluoro-4-hydroxy-1-[(3R,4R)-1-[(6-methylpyrazin-2-yl)methyl]-3-phenyl-piperidine-4-carbonyl]-4-piperidyl]methyl]-6-(4-fluorophenoxy)pyrimidin-4-one] | 0.0274 | 0.0118 |  |
| Cn1cnc2ccc(C(=O)N3CC[C@@H](C(=O)N4CCC(O)(Cn5cnc(Oc6ccc(F)cc6)c(N)c5=O)CC4)[C@H](c4ccccc4)C3)cc2c1=O [Example 123, 6-[(3R,4R)-4-(4-({5-amino-4-(4-fluorophenoxy)-6-oxopyrimidin-1(6H)-yl]methyl)-4-hydroxypiperidine-1-carbonyl)-3-phenylpiperidine-1-carbonyl]-3-methylquinazolin-4(3H)-one] | 0.00692 | 0.0432 |  |
| Nc1c(Oc2ccccc2)ncn(CC2(O)CCN(C(=O)[C@@H]3CCN(C4(c5ccccc5F)COC4)C[C@H]3c3ccccc3)CC2)c1=O [Example 114] | 0.066 | 0.022 |  |
| Nc1c(Oc2ccc(F)cc2)ncn(CC2(O)CCN(C(=O)[C@@H]3CCN(C(=O)c4cc(Cl)cc(Cl)c4)C[C@H]3c3ccccc3)CC2)c1=O [Example 130] | 0.00183 | 0.0075 |  |
| Cn1c(C(=O)N2CC[C@@H](C(=O)N3CCC(O)(Cn4cnc(Oc5ccc(F)cc5)c(N)c4=O)CC3)[C@H](c3ccccc3)C2)c(Cl)c2ccccc21 [Example 127, 5-amino-3-[[1-[(3R,4R)-1-(3-chloro-1-methyl-indole-2-carbonyl)-3-phenyl-piperidine-4-carbonyl]-4-hydroxy-4-piperidyl]methyl]-6-(4-fluorophenoxy)pyrimidin-4-one] | 0.00593 | 0.0204 |  |
